According to patent US20180177805A1, “Intravitreal Lysine Acetylsalicylate As Treatment For Diabetic Retinopathy” (Fundación Para El Fomento De La Investigación Sani taria Y …, priority 2015, published 2018):

How the values were obtained:
[1] = tested on: CD18 leucocyte marker; assay: CD18 leucocyte count by immunohistochemistry in retina sections, streptozotocin diabetic retinopathy model, after intravitreal injection; type: in vivo, Wistar rat; conditions: for CD18 count: treated (CASE) diabetic rats
Description: 1. CD18 leucocyte marker: the leucocyte is the main effector cell of the inflammatory response of the tissues, something which also occurs in the retina. CD18 is a surface molecule which is expressed in the membranes of the leucocytes activated in tissues where there is inflammation, as is the case with the diabetic retina. Determine its absolute and relative number helps to know whether the injected solution is capable of reducing the presence of leucocytes activated in determined layers of the retina as part of their anti-inflammatory action.
(§1) Pursuant to approval of the Bioethics Committee for Research of the University of Miguel Hernandez de Elche and based on the international standards for the use of animal experimentation, […] confined male Wistar rat specimens weighing 200 grams were induced to suffer diabetes by means of injecting intraperitoneal streptozotocin (75 mg/kg) in a single dose. The animals were monitored during the whole study continuously in terms of weight, blood sugar, loss of hair and formation of cataracts. All the animals were exposed to the same parameters of light, darkness and availability of water and food.
(§2) For the intravitreal injection, the animals were anesthetized with a mixture in a proportion of 1:1 of xylazine hydrochloride (4 mg/kg) and ketamine hydrochloride (10 mg/kg). Under mydriasis with 0.5% tropicamide, the intravitreal injection of the lysine acetylsalicylate solution was carried out under a surgical microscope with a micro injection syringe (Hamilton Co., Reno, Nev.) and a 32 gauge needle at 1 millimeter from the temporal limbus. Only half the diabetic animals were treated with the intravitreal solution, the rest of the animals were left to develop diabetic retinopathy naturally. The process of intravitreal injection was repeated in the same way, technique and dose in the same animals 4 weeks after the initial treatment. Summary of the organization of the experimental test: • Initially, the animals were evaluated prior to including them in the experimental test to discard those with defects or basic ocular changes. • The inducement of diabetes was carried out in all the animals by means of injecting intraperitoneal streptozotocin. • The blood sugar indices were compared at 24 and 48 hours of the injection to assess whether the inducement had been successful. • Once diabetes was confirmed, the animals were divided into two groups formed by 8 rats each. • Following the diabetic retinopathy model in rats, diabetes was left to develop naturally in both groups over the first 12 weeks.
(§3) Laminar sections of the retina of all the animals were carried out, being exposed to the action of 4% formaldehyde preservatives. For the marking of the endothelial cells, an anti-ICAM1 monoclonal antibody was used, we also used anti-CD18 monoclonal antibodies for the staining of the leucocytes. After fixing the different sections of stained tissue, the positively stained molecules and the amount of blood vessels present were counted under an optical microscope (Leica® microsystem) with 10× magnification.
(§4) For the purposes of assessing significant differences between the different regions of the retina, in all the tissues, the cell and vessel counts corresponding to the central retina (between optical nerve and macular area) and those corresponding to the peripheral retina (outside of the vascular arches) were carried out separately. These counts were specifically carried out on two layers of the retina: the external plexiform layer and the ganglion cell layer.
The U Mann-Whitney contrast test was used for independent samples. To contrast the correlation between the variables, the Spearman test was used.

[2] = tested on: retina; set-up: species or system Wistar rat; conditions: rat, in vivo
Protocol: as §2, with “The process of intravitreal injection was repeated in the same way, technique and dose in the same animals 4 weeks after the initial treatment.” left out, “weeks. […]” for “weeks.”

[3] = tested on: ICAM-1 endothelial marker; assay: ICAM-1 endothelial cell count by immunohistochemistry in retina sections, streptozotocin diabetic retinopathy model, after intravitreal injection; type: in vivo, Wistar rat; conditions: treated (CASE) diabetic rats
Description: 2. […] ICAM-1 is a transmembrane protein present in the endothelial cells and practically specific to them. Its immunohistochemical staining allows the endothelial cells present in the different layers of examined tissues to be quantitatively indicated and assessed and it gives us information concerning the vascularization of the examined tissues and the integrity of the vascular wall.
as §1, §2
Laminar sections of the retina of all the animals were carried out, being exposed to the action of 4% formaldehyde preservatives. […] After fixing the different sections of stained tissue, the positively stained molecules and the amount of blood vessels present were counted under an optical microscope (Leica® microsystem) with 10× magnification. […]

[4] = tested on: blood vessels of the retina; assay: Vascular density (blood vessel count per tissue section) in retina, streptozotocin diabetic retinopathy model, after intravitreal injection; type: in vivo, Wistar rat; conditions: for VESSELS count: treated (CASE) diabetic rats
Description: 3. Vascular density: the chronic inflammation caused in diabetic retinopathy involves obliteration and death of the blood vessels. […] This scenario is a final stage of the phenomenon known as diabetic microangiopathy. Thus, determining the number of vessels present in each section of tissue can give us information concerning whether or not the medicament is capable of positively or negatively influencing the capillary density of the retina (vessels/portion of tissue).
as §1, §2, §3
as §4, with “layer. […]” for “layer.”

[5] = central retina, external plexiform layer, 25 micrograms intravitreal at weeks 12 and 16, sacrifice week 20
[6] = peripheral retina, external plexiform layer
[7] = peripheral retina, ganglion layer
[8] = treated animals, central retina (text says plexiform layer), range 3-6

**Q.** Which results are given for `CC(=O)Oc1ccccc1C(=O)O` [lysine acetylsalicylate]?
**A.** CD18 count [1, 5]: 16.5 (14.0-18.0); CD18 count ([1]; central retina, ganglion layer): 5.0 (3.0-6.0); CD18 count [1, 6]: 8.0 (6.0-9.0); CD18 count [1, 7]: 3.0 (2.0-4.0); CD18 count, average [1, 8]: 5; leucocytes per field relative to number expected from vessel count (regression model) ([1]; treated group, central retina, expected at least 10 leucocytes per field): half the leucocytes which would be expected; signs of medicament toxicity (de-structuring of retinal layers, absence of photoreceptor cells, histological alterations of optical nerve) [2]: No tissues were found to have signs that showed alterations suggesting toxicity; ICAM1 count [3, 5]: 15.0 (14.0-17.5); ICAM1 count ([3]; central retina, ganglion layer): 4.0 (3.0-5.0); ICAM1 count [3, 6]: 9.0 (7.0-11.0); ICAM1 count [3, 7]: 2.0 (1.3-3.0); VESSELS count [4, 5]: 9.0 (7.0-11.0); VESSELS count ([4]; central retina, ganglion layer): 5.0 (2.8-6.0); VESSELS count [4, 6]: 6.0 (5.0-7.0); VESSELS count [4, 7]: 3.0 (1.8-4.0); vessels per tissue section, average [4, 8]: 5
